From patent publication US20150313825A1, “METHODS AND COMPOSITIONS FOR LOCALLY INCREASING BODY FAT” (TOPOKINE THERAPEUTICS, INC., priority 2012, published 2015)
Like-named read-outs stand apart in the source and are kept apart here. Marks after values point to notes of the source that are not given here.

What was measured:
[1] = tested on: subcutaneous fat; assay: Randomized controlled trial in mice, daily percutaneous application to right flank for 24 days (Example 1); assay type: in vivo, C57BL/6J mice; details: for Mean weight gain relative to vehicle / Mean weight gain / Local increase in subcutaneous fat (treated right flank vs untreated left flank): 5 mM in Lipoderm; for Mean weight gain relative to vehicle / Mean weight gain: 0.1 cc to flank daily, Day 0 until Day 24; for Mean weight gain: high-fat diet; for Local increase in subcutaneous fat (treated right flank vs untreated left flank): following 24 days of therapy
Experimental: The arms were as follows: vehicle (Lipoderm®), a thiazolidinedione (pioglitazone), harmine, an orexigenic compound (megestrol acetate), and efavirenz. Each compound was combined in the percutaneous Lipoderm® formulation at an equimolar concentration (5 mM). The Lipoderm® vehicle is adapted to deliver the respective compound percutaneously, i.e., across the skin and into subcutaneous fat. The formulations were applied daily to the right flank of each animal, whereas the left flank was used as an untreated control.
A randomized controlled trial was conducted on C57BL/6J. Male mice approximately six weeks old were prospectively randomized into groups and assigned to the following treatment conditions (n=5 animals per group):
Animals were shaved and depilated over the flanks at the start of the study.
Animals were kept in identical conditions and fed ab libitum with a standardized high-fat diet (70% kcal fat). Animals were weighed three times weekly. Following 24 consecutive days of treatment, mice were sacrificed and samples of skin and adjacent fat from the treated flanks are taken for histologic examination.

[2] = tested on: subcutaneous fat; assay: Mouse study of percutaneous rosiglitazone, methods of Example 1 (Example 2); details: rosiglitazone 0.1% or 0.3% by weight
[3] = tested on: subcutaneous fat; details: for Rosiglitazone Increase over Placebo (fat thickness), MEAN: 42 days, p<0.0001
Experimental: A prospective controlled trial was performed in 4 Gottingen minipigs (2 males, 2 females). Hair on the back was clipped. […] An equivalent Vehicle Treatment Area was marked on the left side of the animal, such that the two treatment areas were anatomically equivalent. […] After 42 days of treatment, plasma pharmacokinetics (PK) was assessed on all animals by Liquid Chromatography/Tandem Mass Spectrometry. Necropsy was done and samples of skin, subcutaneous fat, and muscle were collected en bloc from each treatment area in a controlled fashion. […] Table 5 presents the thicknesses of subcutaneous fat on each of six treated and control (vehicle) locations, by animal. […] Table 6 compares plasma PK following percutaneous administration (present study) with plasma PK following oral administration in humans.

[4] = oral, 4 mg/d, humans; cited from earlier work
[5] = tested on: subcutaneous fat; assay: Clinical application for augmentation of the buttocks (Example 9); assay type: in vivo, human; details: 10 mg/ml in Lipoderm daily, after 6 months
Experimental: The following description exemplifies a clinical application of percutaneous administration of an orexigenic pregnane derivative for augmentation of the buttocks. A female or male patient wishes to undergo a buttocks augmentation procedure but is concerned about the risks of surgery. The physician prescribes a daily application of megestrol acetate (for example, 10 mg/ml in Lipoderm®) to the buttocks.

| SMILES | Mean weight gain relative to vehicle [1] | Mean weight gain [1] | Local increase in subcutaneous fat (treated right flank vs untreated left flank) [1] | also measured |
| --- | --- | --- | --- | --- |
| COc1ccc2c(c1)[nH]c1c(C)nccc12 [Harmine] | 102% | 6.8 g | did not exhibit any increase in fat or asymmetry | – |
| CCc1ccc(CCOc2ccc(CC3SC(=O)NC3=O)cc2)nc1 (stereo not drawn) [Pioglitazone] | 112% | 7.4 g | – | – |
| CN(CCOc1ccc(CC2SC(=O)NC2=O)cc1)c1ccccn1 (stereo not drawn) [Rosiglitazone] | – | – | – | Adverse effects [2]: No adverse effects were noted; Fat Thickness (mm), Rosiglitazone Treatment Area, MEAN ([3]; mean of 24 locations, vehicle mean 4.39, p < .0001 (paired t-test)): 6.29* mm; Rosiglitazone Increase over Placebo (fat thickness), MEAN [3]: 48%; Rosiglitazone Increase over Placebo (fat thickness), MEAN ([3]; listed as rosiglitazone): 48%; Tolerability, skin irritation and clinical observations ([3]; minipig, in vivo): well tolerated, with no evidence of skin irritation or other clinical observations; Peak plasma level (Cmax) [4]: 355 ng/mL; Plasma exposure (AUC0-24) [4]: 2542 ng·h/mL |
| CC(=O)O[C@]1(C(C)=O)CC[C@H]2[C@@H]3C=C(C)C4=CC(=O)CC[C@]4(C)[C@H]3CC[C@@]21C [Megestrol acetate] | 120% | 8.0 g | local increases in subcutaneous fat | Relative skin fold thickness of the left and right flanks ([1]; Day 24, treated vs untreated flank): asymmetric, with thicker skin folds on the treated flanks; Skin fold thickness, right (treated) flank ([1]; representative mouse, 24 days of treatment, untreated left flank about 2 mm): about 4 mm; Clinical size of buttocks [5]: the buttocks appear clinically larger |
| O=C1Nc2ccc(Cl)cc2[C@@](C#CC2CC2)(C(F)(F)F)O1 [Efavirenz] | 92% | 6.1 g | did not exhibit any increase in fat or asymmetry | – |
